Experimental data as given in patent US6461997B1, “Triazole sulfones having herbicidal activity” (Monsanto Technology LLC, priority 1999, dated 2002).

Key:
[1] = tested on: CHEAL (common lambsquarters); experiment: Pre-emergence herbicidal activity, warm season; type: in vivo, Chenopodium album; conditions: GR80 = lowest tested rate (300, 100, 30, 10 g/ha) with 80% or greater inhibition; approx. 14 days after treating; 30/21° C.
In short: (§1)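 GR80 values derive from percent inhibition relative to untreated plants, read roughly 14 days after sowing and pre-emergence soil-surface treatment (compound in 50:50 acetone/water; rates typically 10, 30, 100, 300 g/ha). Warm-season weeds grew at 30/21° C day/night, cool-season ones at 18/13° C; an asterisk marks activity without reaching 80% at the highest rate.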

ECHCG (barnyardgrass) = experiment: Pre-emergence herbicidal activity, warm season; type: in vivo, Echinochloa crus-galli; conditions: GR80 = lowest tested rate (300, 100, 30, 10 g/ha) with 80% or greater inhibition; approx. 14 days after treating; 30/21° C.
In short: as §1

PANDI (fall panicum) = experiment: Pre-emergence herbicidal activity, warm season; type: in vivo, Panicum dichotomiflorum; conditions: GR80 = lowest tested rate (300, 100, 30, 10 g/ha) with 80% or greater inhibition; approx. 14 days after treating; 30/21° C.
In short: as §1

SASKR (russian thistle) = experiment: Pre-emergence herbicidal activity, cool season; type: in vivo, Salsola kali; conditions: lowest tested rate with 80% or greater inhibition; rates 300, 100, 30, 10 g/ha; about 14 days
In short: as §1

STEME (common chickweed) [2] = experiment: Pre-emergence herbicidal activity, cool season; type: in vivo, Stellaria media; conditions: lowest tested rate with 80% or greater inhibition; rates 300, 100, 30, 10 g/ha; about 14 days
In short: as §1

[3] = tested on: LAMPU (purple deadnettle); experiment: Pre-emergence herbicidal activity, cool season; type: in vivo, Lamium purpureum; conditions: lowest tested rate with 80% or greater inhibition; rates 300, 100, 30, 10 g/ha; about 14 days
In short: as §1

[4] = tested on: PANMI (wild proso millet); experiment: Pre-plant incorporated (PPI) herbicidal activity, warm season; type: in vivo, Panicum miliaceum; conditions: for Percent inhibition PANMI: PPI application
In short: (§2)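 Incorporation into cover soil: a known compound amount, dissolved or suspended in organic solvent, was sprayed onto it and mixed before layering over sown seeds. Plants grew under greenhouse conditions (30/21° C warm season; 18/13° C cool season, greenhouse or growth chamber). Rated ~14 days later as % inhibition.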

[5] = tested on: SORHA (johnsongrass (seedling)); experiment: as above; type: in vivo, Sorghum halepense; conditions: for Percent inhibition SORHA: PPI application
In short: as §2

SORVU (shattercane) = experiment: as above; type: in vivo, Sorghum vulgare; conditions: for Percent inhibition SORVU: PPI application
In short: as §2

STEME (common chickweed) [6] = experiment: Pre-plant incorporated (PPI) herbicidal activity, cool season; type: in vivo, Stellaria media; conditions: for Percent inhibition STEME: weed, PPI application
In short: as §2

ALOMY (blackgrass) = experiment: as above; type: in vivo, Alopecurus myosuroides; conditions: for Percent inhibition ALOMY: weed, PPI application
In short: as §2

corn (ZEAMX) = experiment: Selectivity test, PPI, warm season crop; type: in vivo, Zea mays; conditions: PPI application
In short: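 Percent inhibition relative to untreated controls, assessed roughly 14 days post-planting. Seeds were covered with a soil layer into which solvent-borne compound had been sprayed and mixed. Plants were then grown at 30/21° C. (warm season) or 18/13° C. (cool season) day/night regimes.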

[7] = pre-plant incorporated, lowest tested rate with 80% or greater inhibition, about 14 days

CCN(CC)C(=O)n1cnc(S(=O)(=O)C(F)(F)SCCOC)n1 [Example 13]
Pre-emergence activity (GR80) CHEAL [1]: 300 g/ha
Pre-emergence activity (GR80) ECHCG (ECHCG (barnyardgrass)): 300 g/ha
Pre-emergence activity (GR80) PANDI (PANDI (fall panicum)): 300 g/ha
Pre-emergence activity GR80, SASKR (SASKR (russian thistle)): [empty]
Pre-emergence activity GR80, STEME (STEME (common chickweed) [2]): 100 g/ha
Pre-emergence activity GR80, LAMPU [3]: 100 g/ha
Percent inhibition PANMI ([4]; 10 g/ha): 100%
Percent inhibition PANMI ([4]; 30 g/ha): 90%
Percent inhibition PANMI ([4]; 100 g/ha): 70%
Percent inhibition PANMI ([4]; 300 g/ha): 100%
Percent inhibition PANMI ([4]; 900 g/ha): 100%
PPI activity GR80, PANMI [4, 7]: 100 g/ha
Percent inhibition SORHA ([5]; 10 g/ha): 30%
Percent inhibition SORHA ([5]; 30 g/ha): 100%
Percent inhibition SORHA ([5]; 100 g/ha): 90%
Percent inhibition SORHA ([5]; 300 g/ha): 100%
Percent inhibition SORHA ([5]; 900 g/ha): 100%
PPI activity GR80, SORHA [5, 7]: 100 g/ha
Percent inhibition SORVU (SORVU (shattercane); 10 g/ha): 0%
Percent inhibition SORVU (SORVU (shattercane); 30 g/ha): 50%
Percent inhibition SORVU (SORVU (shattercane); 100 g/ha): 90%
Percent inhibition SORVU (SORVU (shattercane); 300 g/ha): 100%
Percent inhibition SORVU (SORVU (shattercane); 900 g/ha): 100%
PPI activity GR80, SORVU (SORVU (shattercane); [7]): 300 g/ha
PPI activity GR80, STEME (STEME (common chickweed) [6]; [7]): * (activity observed, at least at highest rate, but <80% inhibition)
Percent inhibition STEME (STEME (common chickweed) [6]; 10 g/ha): 0%
Percent inhibition STEME (STEME (common chickweed) [6]; 30 g/ha): 0%
Percent inhibition STEME (STEME (common chickweed) [6]; 100 g/ha): 20%
Percent inhibition STEME (STEME (common chickweed) [6]; 300 g/ha): 100%
Percent inhibition STEME (STEME (common chickweed) [6]; 900 g/ha): 99%
PPI activity GR80, ALOMY (ALOMY (blackgrass); [7]): 100 g/ha
Percent inhibition ALOMY (ALOMY (blackgrass); 10 g/ha): 40%
Percent inhibition ALOMY (ALOMY (blackgrass); 30 g/ha): 90%
Percent inhibition ALOMY (ALOMY (blackgrass); 100 g/ha): 99%
Percent inhibition ALOMY (ALOMY (blackgrass); 300 g/ha): 99%
Percent inhibition ALOMY (ALOMY (blackgrass); 900 g/ha): 100%
Percent inhibition ZEAMX (corn (ZEAMX); 10 g/ha): 0%
Percent inhibition ZEAMX (corn (ZEAMX); 30 g/ha): 0%
Percent inhibition ZEAMX (corn (ZEAMX); 100 g/ha): 5%
Percent inhibition ZEAMX (corn (ZEAMX); 300 g/ha): 10%
Percent inhibition ZEAMX (corn (ZEAMX); 900 g/ha): 50%
